# Reference: US9302999B2, “Substituted triazoles as herbicides” (E. I. DU PONT DE NEMOURS AND COMPANY, priority 2012, dated 2016)
# What was measured:
# Format in all cases: in vivo
# [1] = tested on: barnyardgrass (Echinochloa crus-galli); assay: Test A pre-/postemergence: barnyardgrass
# Summary of the method: (§1)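 Each species received preemergence soil-directed spraying and, at the same time, postemergence treatment of seedlings 2–10 cm tall. Formulation: non-phytotoxic solvent mixture including surfactant. Response assessed visually about ten days on, relative to untreated controls, 0–100 scale.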
# [2] = tested on: crabgrass, large (large crabgrass, Digitaria sanguinalis); assay: Test A pre-/postemergence: crabgrass, large
# Summary of the method: as §1
# [3] = tested on: foxtail, giant (giant foxtail, Setaria faberii); assay: Test A pre-/postemergence: foxtail, giant
# Summary of the method: as §1
# [4] = tested on: morningglory (Ipomoea spp.); assay: Test A pre-/postemergence: morningglory
# Summary of the method: as §1
# [5] = tested on: pigweed (Amaranthus retroflexus); assay: Test A pre-/postemergence: pigweed
# Summary of the method: as §1
# [6] = tested on: velvetleaf (Abutilon theophrasti); assay: Test A pre-/postemergence: velvetleaf
# Summary of the method: as §1
# [7] = tested on: wheat (Triticum aestivum); assay: Test A pre-/postemergence: wheat
# Summary of the method: as §1
# corn (Zea mays) = assay: Test A pre-/postemergence: corn
# Summary of the method: as §1
# rice (Oryza sativa) = assay: Test B flooded paddy: rice; conditions: Flood, applied to paddy water at 2-leaf stage, visually evaluated after 13 to 15 days
# Summary of the method: (§2)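 Each compound is applied to the floodwater of pots holding 2-leaf seedlings, water standing 3 cm over the soil throughout. Plants stay in a greenhouse 13 to 15 days before visual scoring against controls from 0 (no effect) to 100 (complete control).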
# [8] = tested on: sedge, umbrella (small-flower umbrella sedge Cyperus difformis); assay: Test B flooded paddy: sedge, umbrella; conditions: Flood, applied to paddy water at 2-leaf stage, visually evaluated after 13 to 15 days
# Summary of the method: as §2
# [9] = tested on: ducksalad (Heteranthera limosa); assay: Test B flooded paddy: ducksalad; conditions: Flood, applied to paddy water at 2-leaf stage, visually evaluated after 13 to 15 days
# Summary of the method: as §2
# [10] = tested on: barnyardgrass (Echinochloa crus-galli); assay: Test B flooded paddy: barnyardgrass; conditions: Flood, applied to paddy water at 2-leaf stage, visually evaluated after 13 to 15 days
# Summary of the method: as §2
# [11] = Postemergence, 125 g ai/ha, 0 to 100 scale, 0 is no effect, 100 is complete control
# [12] = Postemergence, 500 g ai/ha, 0 to 100 scale, 0 is no effect, 100 is complete control
# [13] = Preemergence, 125 g ai/ha, 0 to 100 scale where 0 is no effect and 100 is complete control
# [14] = Preemergence, 500 g ai/ha, 0 to 100 scale (0 no effect, 100 complete control)
Structure (SMILES),"Plant response rating, Barnyardgrass [1, 11]","Barnyardgrass plant response rating [1, 12]","Plant response rating, Barnyardgrass [1, 13]","Plant response rating, Barnyardgrass [1, 14]","Plant response rating, Crabgrass, Large [2, 11]","Crabgrass, Large plant response rating [2, 12]","Plant response rating, Crabgrass, Large [2, 13]","Plant response rating, Crabgrass, Large [2, 14]","Plant response rating, Foxtail, Giant [3, 11]","Foxtail, Giant plant response rating [3, 12]","Plant response rating, Foxtail, Giant [3, 13]","Plant response rating, Foxtail, Giant [3, 14]","Plant response rating, Morningglory [4, 11]","Morningglory plant response rating [4, 12]","Plant response rating, Morningglory [4, 13]","Plant response rating, Morningglory [4, 14]","Plant response rating, Pigweed [5, 11]","Pigweed plant response rating [5, 12]","Plant response rating, Pigweed [5, 13]","Plant response rating, Pigweed [5, 14]",other results
Oc1nn(-c2ccc(C(F)(F)F)cc2)nc1Cc1ccnc(C(F)(F)F)c1 [Compound 198],0,0,0,0,0,10,0,0,0,10,0,0,10,20,0,0,10,50,0,0,"Plant response rating, Velvetleaf [6, 11]: 10; Velvetleaf plant response rating [6, 12]: 10; Plant response rating, Velvetleaf [6, 13]: 0; Plant response rating, Velvetleaf [6, 14]: 0; Plant response rating, Wheat [7, 11]: 0; Wheat plant response rating [7, 12]: 0; Plant response rating, Wheat [7, 13]: 0; Plant response rating, Wheat [7, 14]: 0; Plant response rating, Corn (corn (Zea mays); [11]): 0; Corn plant response rating (corn (Zea mays); [12]): 10; Plant response rating, Corn (corn (Zea mays); [13]): 0; Plant response rating, Corn (corn (Zea mays); [14]): 0; Plant response rating, Rice (0 to 100 scale, 0 is no effect, 100 is complete control) (rice (Oryza sativa); 250 g ai/ha): 0; Plant response rating, Sedge, Umbrella (0 to 100 scale, 0 is no effect, 100 is complete control) ([8]; 250 g ai/ha): 0; Plant response rating, Ducksalad (0 to 100 scale, 0 is no effect, 100 is complete control) ([9]; 250 g ai/ha): 0; Plant response rating, Barnyardgrass (0 to 100 scale, 0 is no effect, 100 is complete control) ([10]; 250 g ai/ha): 0"
CC(=O)Oc1nn(-c2ccc(C(F)(F)F)cc2)nc1Cc1ccnc(C(F)(F)F)c1 [Compound 197],0,10,0,0,10,20,0,0,10,40,0,0,30,40,0,0,30,70,0,0,"Plant response rating, Velvetleaf [6, 11]: 20; Velvetleaf plant response rating [6, 12]: 30; Plant response rating, Velvetleaf [6, 13]: 0; Plant response rating, Velvetleaf [6, 14]: 0; Plant response rating, Wheat [7, 11]: 0; Wheat plant response rating [7, 12]: 0; Plant response rating, Wheat [7, 13]: 0; Plant response rating, Wheat [7, 14]: 0; Plant response rating, Corn (corn (Zea mays); [11]): 0; Corn plant response rating (corn (Zea mays); [12]): 20; Plant response rating, Corn (corn (Zea mays); [13]): 0; Plant response rating, Corn (corn (Zea mays); [14]): 0; Plant response rating, Rice (0 to 100 scale, 0 is no effect, 100 is complete control) (rice (Oryza sativa); 250 g ai/ha): 0; Plant response rating, Sedge, Umbrella (0 to 100 scale, 0 is no effect, 100 is complete control) ([8]; 250 g ai/ha): 0; Plant response rating, Ducksalad (0 to 100 scale, 0 is no effect, 100 is complete control) ([9]; 250 g ai/ha): 0; Plant response rating, Barnyardgrass (0 to 100 scale, 0 is no effect, 100 is complete control) ([10]; 250 g ai/ha): 0"
CCCCc1nn(-c2ccc(C(F)(F)F)cc2)nc1Oc1ccnc(C(F)(F)F)c1 [Compound 184],10,30,0,50,50,90,70,100,30,80,70,90,30,100,0,10,100,100,90,100,"Plant response rating, Velvetleaf [6, 11]: 40; Velvetleaf plant response rating [6, 12]: 90; Plant response rating, Velvetleaf [6, 13]: 0; Plant response rating, Velvetleaf [6, 14]: 30; Plant response rating, Wheat [7, 11]: 10; Wheat plant response rating [7, 12]: 20; Plant response rating, Wheat [7, 13]: 0; Plant response rating, Wheat [7, 14]: 0; Plant response rating, Corn (corn (Zea mays); [11]): 10; Corn plant response rating (corn (Zea mays); [12]): 20; Plant response rating, Corn (corn (Zea mays); [13]): 0; Plant response rating, Corn (corn (Zea mays); [14]): 0; Plant response rating, Rice (0 to 100 scale, 0 is no effect, 100 is complete control) (rice (Oryza sativa); 250 g ai/ha): 25; Plant response rating, Sedge, Umbrella (0 to 100 scale, 0 is no effect, 100 is complete control) ([8]; 250 g ai/ha): 60; Plant response rating, Ducksalad (0 to 100 scale, 0 is no effect, 100 is complete control) ([9]; 250 g ai/ha): 0; Plant response rating, Barnyardgrass (0 to 100 scale, 0 is no effect, 100 is complete control) ([10]; 250 g ai/ha): 25"
CCOc1nn(-c2ccc(F)cc2F)nc1Cc1ccnc(C(F)(F)F)c1 [Compound 190],100,100,100,100,100,100,100,100,100,100,100,100,100,100,80,80,100,100,100,100,"Plant response rating, Velvetleaf [6, 11]: 100; Velvetleaf plant response rating [6, 12]: 100; Plant response rating, Velvetleaf [6, 13]: 40; Plant response rating, Velvetleaf [6, 14]: 100; Plant response rating, Wheat [7, 11]: 70; Wheat plant response rating [7, 12]: 100; Plant response rating, Wheat [7, 13]: 60; Plant response rating, Wheat [7, 14]: 80; Plant response rating, Corn (corn (Zea mays); [11]): 60; Corn plant response rating (corn (Zea mays); [12]): 90; Plant response rating, Corn (corn (Zea mays); [13]): 30; Plant response rating, Corn (corn (Zea mays); [14]): 90; Plant response rating, Rice (0 to 100 scale, 0 is no effect, 100 is complete control) (rice (Oryza sativa); 125 g ai/ha): 50; Plant response rating, Sedge, Umbrella (0 to 100 scale, 0 is no effect, 100 is complete control) ([8]; 125 g ai/ha): 95; Plant response rating, Ducksalad (0 to 100 scale, 0 is no effect, 100 is complete control) ([9]; 125 g ai/ha): 70; Plant response rating, Barnyardgrass (0 to 100 scale, 0 is no effect, 100 is complete control) ([10]; 125 g ai/ha): 70"
